Reference: PubChem BioAssay (NCI)
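Test compounds were applied to cells in 96-well plates for 48 hours at 5 doses. At the TGI there is no net growth.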

Tests used:
Test in all cases: DTP human tumour cell line panel, 48 h
HOP-92 NSCLC = system: HOP-92 NSCLC
SK-MEL-28 melanoma = system: SK-MEL-28 melanoma
M14 melanoma = system: M14 melanoma
SN12C renal = system: SN12C renal
OVCAR-4 ovarian = system: OVCAR-4 ovarian
HT29 colon = system: HT29 colon
HCC-2998 colon = system: HCC-2998 colon
RPMI-8226 leukemia = system: RPMI-8226 leukemia
CAKI-1 renal = system: CAKI-1 renal
786-0 renal = system: 786-0 renal
SF-295 CNS = system: SF-295 CNS
SK-OV-3 ovarian = system: SK-OV-3 ovarian
HL-60(TB) leukemia = system: HL-60(TB) leukemia
NCI-H460 lung = system: NCI-H460 lung
CCRF-CEM leukemia = system: CCRF-CEM leukemia
DMS 273 small cell lung = system: DMS 273 small cell lung
HOP-62 NSCLC = system: HOP-62 NSCLC
K-562 leukemia = system: K-562 leukemia
SR leukemia = system: SR leukemia
UACC-62 melanoma = system: UACC-62 melanoma
SW-620 colon = system: SW-620 colon
A549 NSCLC = system: A549 NSCLC
OVCAR-5 ovarian = system: OVCAR-5 ovarian
SF-539 CNS = system: SF-539 CNS
SK-MEL-2 melanoma = system: SK-MEL-2 melanoma
KM20L2 colon = system: KM20L2 colon
ACHN renal = system: ACHN renal
SNB-75 CNS = system: SNB-75 CNS
UO-31 renal = system: UO-31 renal
DLD-1 colon = system: DLD-1 colon
MOLT-4 leukemia = system: MOLT-4 leukemia
HOP-18 NSCLC = system: HOP-18 NSCLC
SK-MEL-5 melanoma = system: SK-MEL-5 melanoma
OVCAR-8 ovarian = system: OVCAR-8 ovarian
LOX IMVI melanoma = system: LOX IMVI melanoma
LXFL 529 NSCLC = system: LXFL 529 NSCLC
TK-10 renal = system: TK-10 renal
RXF-631 renal = system: RXF-631 renal
KM12 colon = system: KM12 colon
NCI-H23 lung = system: NCI-H23 lung
EKVX NSCLC = system: EKVX NSCLC
U251 CNS = system: U251 CNS
RXF 393 renal = system: RXF 393 renal
SNB-78 CNS = system: SNB-78 CNS
IGROV1 ovarian = system: IGROV1 ovarian
HCT-116 colon = system: HCT-116 colon
DMS 114 small cell lung = system: DMS 114 small cell lung
COLO 205 colon = system: COLO 205 colon
OVCAR-3 ovarian = system: OVCAR-3 ovarian
HCT-15 colon = system: HCT-15 colon
NCI-H226 lung = system: NCI-H226 lung
SF-268 CNS = system: SF-268 CNS
NCI-H522 lung = system: NCI-H522 lung
SNB-19 CNS = system: SNB-19 CNS
MALME-3M melanoma = system: MALME-3M melanoma
M19-MEL melanoma = system: M19-MEL melanoma
UACC-257 melanoma = system: UACC-257 melanoma
A498 renal = system: A498 renal
XF 498 CNS = system: XF 498 CNS

SMILES: COc1cc2cnc3c4cc(OC)c(OC(C)C)cc4ccc3c2cc1OC
- TGI (HOP-92 NSCLC): > 100 µM
- TGI (SK-MEL-28 melanoma): > 100 µM
- TGI (M14 melanoma): > 100 µM
- TGI (SN12C renal): > 100 µM
- TGI (OVCAR-4 ovarian): > 100 µM
- TGI (HT29 colon): > 100 µM
- TGI (HCC-2998 colon): > 100 µM
- TGI (RPMI-8226 leukemia): > 100 µM
- TGI (CAKI-1 renal): > 100 µM
- TGI (786-0 renal): > 100 µM
- TGI (SF-295 CNS): > 100 µM
- TGI (SK-OV-3 ovarian): > 100 µM
- TGI (HL-60(TB) leukemia): > 100 µM
- TGI (NCI-H460 lung): > 100 µM
- TGI (CCRF-CEM leukemia): > 100 µM
- TGI (DMS 273 small cell lung): > 100 µM
- TGI (HOP-62 NSCLC): > 100 µM
- TGI (K-562 leukemia): > 100 µM
- TGI (SR leukemia): > 100 µM
- TGI (UACC-62 melanoma): > 100 µM
- TGI (SW-620 colon): > 100 µM
- TGI (A549 NSCLC): > 100 µM
- TGI (OVCAR-5 ovarian): > 100 µM
- TGI (SF-539 CNS): > 100 µM
- TGI (SK-MEL-2 melanoma): > 100 µM
- TGI (KM20L2 colon): > 100 µM
- TGI (ACHN renal): > 100 µM
- TGI (SNB-75 CNS): > 100 µM
- TGI (UO-31 renal): > 100 µM
- TGI (DLD-1 colon): > 100 µM
- TGI (MOLT-4 leukemia): > 100 µM
- TGI (HOP-18 NSCLC): > 100 µM
- TGI (SK-MEL-5 melanoma): > 100 µM
- TGI (OVCAR-8 ovarian): > 100 µM
- TGI (LOX IMVI melanoma): > 100 µM
- TGI (LXFL 529 NSCLC): > 100 µM
- TGI (TK-10 renal): > 100 µM
- TGI (RXF-631 renal): > 100 µM
- TGI (KM12 colon): > 100 µM
- TGI (NCI-H23 lung): > 100 µM
- TGI (EKVX NSCLC): > 100 µM
- TGI (U251 CNS): > 100 µM
- TGI (RXF 393 renal): > 100 µM
- TGI (SNB-78 CNS): > 100 µM
- TGI (IGROV1 ovarian): > 100 µM
- TGI (HCT-116 colon): > 100 µM
- TGI (DMS 114 small cell lung): > 100 µM
- TGI (COLO 205 colon): > 100 µM
- TGI (OVCAR-3 ovarian): > 100 µM
- TGI (HCT-15 colon): > 100 µM
- TGI (NCI-H226 lung): > 100 µM
- TGI (SF-268 CNS): > 100 µM
- TGI (NCI-H522 lung): > 100 µM
- TGI (SNB-19 CNS): > 100 µM
- TGI (MALME-3M melanoma): > 100 µM
- TGI (M19-MEL melanoma): > 100 µM
- TGI (UACC-257 melanoma): > 100 µM

SMILES: CN1C(=O)N(c2nc3ccccc3[nH]2)C(C)(C)C1=O
- TGI (SK-MEL-28 melanoma): > 100 µM
- TGI (M14 melanoma): > 100 µM
- TGI (SN12C renal): > 100 µM
- TGI (OVCAR-4 ovarian): > 100 µM
- TGI (HT29 colon): > 100 µM
- TGI (RPMI-8226 leukemia): > 100 µM
- TGI (786-0 renal): > 100 µM
- TGI (SF-295 CNS): > 100 µM
- TGI (SK-OV-3 ovarian): > 100 µM
- TGI (HL-60(TB) leukemia): > 100 µM
- TGI (CCRF-CEM leukemia): > 100 µM
- TGI (DMS 273 small cell lung): > 100 µM
- TGI (HOP-62 NSCLC): > 100 µM
- TGI (A498 renal): > 100 µM
- TGI (K-562 leukemia): > 100 µM
- TGI (SR leukemia): > 100 µM
- TGI (UACC-62 melanoma): > 100 µM
- TGI (SW-620 colon): > 100 µM
- TGI (XF 498 CNS): > 100 µM
- TGI (A549 NSCLC): > 100 µM
- TGI (SF-539 CNS): > 100 µM
- TGI (SK-MEL-2 melanoma): > 100 µM
- TGI (KM20L2 colon): > 100 µM
- TGI (ACHN renal): > 100 µM
- TGI (SNB-75 CNS): > 100 µM
- TGI (UO-31 renal): > 100 µM
- TGI (DLD-1 colon): > 100 µM
- TGI (MOLT-4 leukemia): > 100 µM
- TGI (HOP-18 NSCLC): > 100 µM
- TGI (SK-MEL-5 melanoma): > 100 µM
- TGI (OVCAR-8 ovarian): > 100 µM
- TGI (LOX IMVI melanoma): > 100 µM
- TGI (LXFL 529 NSCLC): > 100 µM
- TGI (KM12 colon): > 100 µM
- TGI (NCI-H23 lung): > 100 µM
- TGI (EKVX NSCLC): > 100 µM
- TGI (U251 CNS): > 100 µM
- TGI (RXF 393 renal): > 100 µM
- TGI (SNB-78 CNS): > 100 µM
- TGI (IGROV1 ovarian): > 100 µM
- TGI (HCT-116 colon): > 100 µM
- TGI (DMS 114 small cell lung): > 100 µM
- TGI (COLO 205 colon): > 100 µM
- TGI (OVCAR-3 ovarian): > 100 µM
- TGI (HCT-15 colon): > 100 µM
- TGI (NCI-H226 lung): > 100 µM
- TGI (SF-268 CNS): > 100 µM
- TGI (NCI-H522 lung): > 100 µM
- TGI (SNB-19 CNS): > 100 µM
- TGI (MALME-3M melanoma): > 100 µM
- TGI (M19-MEL melanoma): > 100 µM
- TGI (UACC-257 melanoma): > 100 µM

SMILES: C/C(=N/N)c1sc(-c2nc(C)c(/C(C)=N\N)s2)nc1C
- TGI (HOP-92 NSCLC): > 100 µM
- TGI (SK-MEL-28 melanoma): > 100 µM
- TGI (M14 melanoma): > 100 µM
- TGI (SN12C renal): > 100 µM
- TGI (OVCAR-4 ovarian): > 100 µM
- TGI (HT29 colon): > 100 µM
- TGI (HCC-2998 colon): > 100 µM
- TGI (RPMI-8226 leukemia): > 63.9 µM
- TGI (CAKI-1 renal): > 100 µM
- TGI (786-0 renal): > 100 µM
- TGI (SF-295 CNS): > 100 µM
- TGI (SK-OV-3 ovarian): > 100 µM
- TGI (HL-60(TB) leukemia): > 69.3 µM
- TGI (NCI-H460 lung): > 100 µM
- TGI (CCRF-CEM leukemia): > 76.7 µM
- TGI (DMS 273 small cell lung): > 58.8 µM
- TGI (HOP-62 NSCLC): > 100 µM
- TGI (A498 renal): > 100 µM
- TGI (K-562 leukemia): > 100 µM
- TGI (SR leukemia): 36.4 µM
- TGI (UACC-62 melanoma): > 100 µM
- TGI (SW-620 colon): > 100 µM
- TGI (XF 498 CNS): > 100 µM
- TGI (A549 NSCLC): > 100 µM
- TGI (OVCAR-5 ovarian): > 100 µM
- TGI (SF-539 CNS): > 100 µM
- TGI (SK-MEL-2 melanoma): > 100 µM
- TGI (KM20L2 colon): > 100 µM
- TGI (ACHN renal): > 100 µM
- TGI (SNB-75 CNS): > 100 µM
- TGI (UO-31 renal): > 100 µM
- TGI (DLD-1 colon): > 100 µM
- TGI (MOLT-4 leukemia): 83.3 µM
- TGI (HOP-18 NSCLC): > 100 µM
- TGI (SK-MEL-5 melanoma): > 100 µM
- TGI (OVCAR-8 ovarian): > 100 µM
- TGI (LOX IMVI melanoma): > 75.2 µM
- TGI (LXFL 529 NSCLC): > 100 µM
- TGI (TK-10 renal): > 100 µM
- TGI (KM12 colon): > 100 µM
- TGI (NCI-H23 lung): > 100 µM
- TGI (EKVX NSCLC): > 100 µM
- TGI (U251 CNS): > 100 µM
- TGI (RXF 393 renal): > 100 µM
- TGI (SNB-78 CNS): > 100 µM
- TGI (IGROV1 ovarian): > 100 µM
- TGI (HCT-116 colon): > 100 µM
- TGI (DMS 114 small cell lung): > 63.8 µM
- TGI (COLO 205 colon): > 68.9 µM
- TGI (OVCAR-3 ovarian): > 100 µM
- TGI (HCT-15 colon): > 60.8 µM
- TGI (NCI-H226 lung): > 100 µM
- TGI (SF-268 CNS): > 100 µM
- TGI (NCI-H522 lung): > 100 µM
- TGI (SNB-19 CNS): > 100 µM
- TGI (MALME-3M melanoma): > 100 µM
- TGI (M19-MEL melanoma): > 100 µM
- TGI (UACC-257 melanoma): > 100 µM
